Results as given in BindingDB's records for doi:10.1046/j.1471-4159.2000.740478.x (Janssen Research Foundation, 2000).
Values joined by “and” are separate entries in the source; they are usually repeats but may differ in a detail not shown here. Identical values can stand only once.

What follows are molecules tested against 5-hydroxytryptamine receptor 4 (Homo sapiens, UniProt Q13639).
5-hydroxytryptamine receptor 4, sequence (Q13639 whole entry): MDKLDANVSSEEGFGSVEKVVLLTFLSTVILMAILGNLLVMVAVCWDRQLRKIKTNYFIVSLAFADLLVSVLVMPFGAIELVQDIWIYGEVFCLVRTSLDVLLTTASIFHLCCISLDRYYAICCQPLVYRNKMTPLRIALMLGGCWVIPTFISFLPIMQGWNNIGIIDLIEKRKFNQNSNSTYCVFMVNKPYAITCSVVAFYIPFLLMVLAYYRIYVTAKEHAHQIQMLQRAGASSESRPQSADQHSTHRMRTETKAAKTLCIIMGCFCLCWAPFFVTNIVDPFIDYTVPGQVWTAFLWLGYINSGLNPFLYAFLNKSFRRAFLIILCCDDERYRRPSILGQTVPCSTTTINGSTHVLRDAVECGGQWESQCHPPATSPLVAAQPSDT
For `CCCCN1CCC(COC(=O)c2cc(Cl)c(N)c3c2OCCO3)CC1` [CAS_121881], the Ki was 0.06 nM and 0.03 nM. With `Cn1cc(C(=O)OCC2CCN(CCNS(C)(=O)=O)CC2)c2ccccc21` [GR 113808] the Ki was 0.31 nM and 0.5 nM. For `COc1ccc2[nH]cc(C=NN=C(N)NCCCCO)c2c1` [SDZ-HTF-919], the Ki was 15.8 nM and 10 nM and 25.1 nM. For `CCOc1cc(N)c(Cl)cc1C(=O)NCC1CN(Cc2ccc(F)cc2)CCO1` (stereo not given) [SMR000469200], the Ki was 200 nM and 631 nM and 126 nM. `COc1ccc2[nH]cc(CCN)c2c1` [tryptamine, 5-Methoxy] gave a Ki of 794 nM.
